Laboratory results: the CombiSolv-Exp solvation set (Vermeire and Green 2021)

Test: solvent given as SMILES

CN(C)C(=O)Nc1ccc(Cl)c(Cl)c1
Details	solvation free energy, 298 K [kcal/mol]
in CC(C)CCO	-14.6
in CCCC(C)O	-14.5
in CCCCCl	-13.3
in CCCCOC(C)=O	-14.5
in CCCCOCCCC	-12.6
in CCOC(C)=O	-14.6
in COC(C)=O	-14.6
in ClC(Cl)(Cl)Cl	-12.4
in ClC(Cl)Cl	-14.5
in ClCCCl	-14.3
in ClCCl	-14.2
in Clc1ccccc1	-13.6
in O	-10.9

C1CCCC1
Details	solvation free energy, 298 K [kcal/mol]
in CC#N	-2.52
in CC(C)CCCC(C)CCCC(C)CCCCC(C)CCCC(C)CCCC(C)C	-3.23
in CC(C)O	-2.89
in CCCC#N	-2.86
in CCCCCC	-3.7
in CCCCCCCCCC	-3.46
in CCCCCCCCCCCC	-3.37
in CCCCCCCCCCCCCCCC	-3.31
in CCCCCCCO	-3.1
in CCCO	-2.89
in CCO	-2.78
in CN1CCCC1=O	-2.7
in CN1CCCCC1=O	-2.81
in CN1CCN(C)C1=O	-2.56
in CN(C)C=O	-2.73
in CO	-2.62
in COC(C)(C)C	-3.55
in ClC(Cl)(Cl)Cl	-3.78
in ClC=CCl	-3.78
in N#CCCCCC#N	-2.08
in N#Cc1ccccc1	-3
in NCCO	-1.24
in O	1.2
in O=CN1CCOCC1	-2.22
in O=Cc1ccco1	-2.41
in OC1CCCCC1	-3.02
in OCc1ccccc1	-2.7
in OCc1ccco1	-2.39
in S=C=S	-3.84
in c1ccc2ncccc2c1	-3.21

CC=O
Details	solvation free energy, 298 K [kcal/mol]
in CC(=O)N(C)C	-3.22
in CC(C)CCCC(C)CCCC(C)CCCCC(C)CCCC(C)CCCC(C)C	-2.26
in CCCCCCCCCCCCCCCC	-1.51
in CCCCCCCCO	-3.65
in CCCCN(C=O)CCCC	-2.78
in CCN1CCCC1=O	-3.05
in CCN(CC)C(C)=O	-3.06
in CCNC(C)=O	-2.73
in CN1CCCCC1=O	-3.04
in CNC(C)=O	-2.85
in CO	-4.83
in O	-3.44

COc1cc(C=O)ccc1O
Details	solvation free energy, 298 K [kcal/mol]
in O	-8.76

CC(=O)Oc1ccccc1C(=O)O
Details	solvation free energy, 298 K [kcal/mol]
in C1CCOC1	-14.3
in C1COCCO1	-14.1
in CC(=O)CC(C)C	-13.2
in CC(=O)OC(C)C	-13.1
in CC(C)(C)O	-13.7
in CC(C)=O	-14.1
in CC(C)CCO	-13.4
in CC(C)CO	-13.2
in CC(C)O	-13.6
in CC(C)OC(C)C	-12.4
in CCC(C)=O	-13.7
in CCC(C)O	-13.5
in CCCC(=O)OC	-13.1
in CCCC(C)O	-13.3
in CCCCCCCCCCO	-12.9
in CCCCCCCO	-13.1
in CCCCCCO	-13.2
in CCCCCO	-13.3
in CCCCO	-13.4
in CCCCOC(C)=O	-13.1
in CCCO	-13.6
in CCO	-14
in CCOC(C)=O	-13.5
in CCOCC	-13.2
in CO	-14.1
in COC(C)(C)C	-13.2
in COC(C)=O	-13.6

Nc1ccccc1-c1ccccc1
Details	solvation free energy, 298 K [kcal/mol]
in O	-7.27

O=S1(=O)CCCC1
Details	solvation free energy, 298 K [kcal/mol]
in O	-8.61

Clc1ccc(-c2ccc(Cl)c(Cl)c2)cc1Cl
Details	solvation free energy, 298 K [kcal/mol]
in O	-3.62

Cc1c[nH]c2ccccc12
Details	solvation free energy, 298 K [kcal/mol]
in O	-5.88

CCC(CC)CO
Details	solvation free energy, 298 K [kcal/mol]
in O	-3.73

O=[N+]([O-])c1ccc(O)c([N+](=O)[O-])c1
Details	solvation free energy, 298 K [kcal/mol]
in CCCCCC	-8.09
in CCCCCCC	-8.08
in CCCCCCCC	-8.05
in O	-7.61

Clc1cc(-c2cc(Cl)c(Cl)c(Cl)c2Cl)cc(Cl)c1Cl
Details	solvation free energy, 298 K [kcal/mol]
in O	-3.17

CC(C)(C)C
Details	solvation free energy, 298 K [kcal/mol]
in C1COCCO1	-2.16
in CC(C)=O	-2.22
in CCCCCC	-2.77
in CCO	-2.2
in CO	-1.91
in O	2.66

COc1ccc(O)cc1
Details	solvation free energy, 298 K [kcal/mol]
in CCCCCC	-7.15

CCC=CCC=CCC=CCCCCCCCC(=O)OC
Details	solvation free energy, 298 K [kcal/mol]
in O	-3.47

CC(C)=CCCC1(C)C2CC3C(C2)C31C (configuration not stated)
Details	solvation free energy, 298 K [kcal/mol]
in O	0.55

O=C(O)c1ccc(C(=O)O)cc1
Details	solvation free energy, 298 K [kcal/mol]
in CN1CCCC1=O	-16.2
in O	-11.4

C=CC(C)=CCC=C(C)CCC=C(C)C
Details	solvation free energy, 298 K [kcal/mol]
in O	-1.06

CCC=O
Details	solvation free energy, 298 K [kcal/mol]
in C1CCOC1	-3.82
in C=CCCCCCCCCCCCCCC	-2.47
in CC(C)CCCC(C)CCCC(C)CCCCC(C)CCCC(C)CCCC(C)C	-2.57
in CCC(C)=O	-3.85
in CCCCCCCC	-2.54
in CCCCCCCCCCCCCCCC	-2.41
in CCCCCCCCO	-4.15
in NC=O	-3.26
in O	-3.35
in [2H]O[2H]	-3.31

O=S=O
Details	solvation free energy, 298 K [kcal/mol]
in C1CCC2CCCCC2C1	-1.26
in C1CCCCC1	-1.23
in C1CCOC1	-3.93
in C1COCCO1	-3.41
in CC1COC(=O)O1	-3.16
in CC#N	-3.25
in CC(=O)N(C)C	-3.52
in CC(C)=O	-3.52
in CC(C)CC(C)(C)C	-1.17
in CCCCCCC	-1.36
in CCCCCCCC	-1.01
in CCCCCCCCCCCCCCCC	-1.1
in CCOC(C)=O	-3.22
in CN1CCCC1=O	-3.11
in CO	-2.84
in COC(=O)CC#N	-2.82
in COC(C)=O	-3.08
in COCCOCCO	-4.09
in COCCOCCOC	-4.02
in COCCOCCOCCOC	-3.89
in COCCOCCOCCOCCOC	-3.85
in CS(C)=O	-4.71
in ClCCCl	-2.55
in N#Cc1ccccc1	-2.59
in O	-2.07
in OCCO	-2.88
in OCc1ccccc1	-2.8
in c1ccncc1	-4.82

CC(C)CO
Details	solvation free energy, 298 K [kcal/mol]
in Brc1ccccc1	-4.23
in C1CCCCC1	-3.98
in CC(=O)N(C)C	-6.04
in CC(C)(C)O	-5.95
in CC(C)CC(C)(C)C	-3.55
in CC(C)CCCC(C)CCCC(C)CCCCC(C)CCCC(C)CCCC(C)C	-3.1
in CCC(C)=O	-5.43
in CCC(C)O	-5.95
in CCCCCC	-3.58
in CCCCCCC	-3.51
in CCCCCCCC	-3.33
in CCCCCCCCCCCCCCCC	-3.25
in CCCCCCCCCCO	-5.43
in CCCCCCCCO	-5.36
in CCCCCO	-5.73
in CCCCCl	-4.41
in CCCCN(C=O)CCCC	-5.76
in CCCCO	-5.74
in CCCCOC(C)=O	-4.84
in CCCOCCC	-4.78
in CCOC(=O)c1ccccc1C(=O)OCC	-4.88
in CCOP(=O)(OCC)OCC	-5.79
in CN1CCCC1=O	-6.03
in CN1CCN(C)C1=O	-5.9
in CNC(C)=O	-5.91
in CO	-6.18
in Cc1ccc(C)cc1	-4.25
in Cc1cccc(C)c1	-4.1
in Clc1ccccc1	-4.26
in O	-4.52
in O=CN1CCOCC1	-5.3
in OCCOCCO	-5.51
in [2H]O[2H]	-4.59

C=CC1(C)CCC(=C(C)C)CC1C(=C)C (configuration not stated)
Details	solvation free energy, 298 K [kcal/mol]
in O	-0.35
